The values that follow come from article PMC6352943, “Novel pyrazolo[3,4-d]pyrimidines: design, synthesis, anticancer activity, dual EGFR/ErbB2 receptor tyrosine kinases inhibitory activity, effects on cell cycle profile and caspase-3-mediated apoptosis” (Journal of Enzyme Inhibition and Medicinal Chemistry, 2019).

The structures appear in SMILES notation. Bounds are passed on as bounds.

The first data set deals with IGROV1. As to the kind of experiment: NCI 60 cell line single dose screen (SRB). Format: cell-based. The settings on record: Homo sapiens, IGROV-1; IGROV1 (ovarian cancer), single dose 10^−5 M, 48 h; read-out: Growth inhibition percentage. The essentials:
(§1)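 Cells were plated and grown 24 h at 37 °C, 5% CO2 before compound addition from DMSO stock, then exposed 48 h. Adherent cells were fixed with cold TCA (final 10%) and suspension cells with 16% TCA. SRB-stained protein was read at 515 nm and percent growth was calculated against time-zero and untreated plates.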
Take `Cc1nn(-c2ccc(F)cc2)c2nc[nH]c(=O)c12` [Compound 3, 1–(4-Fluorophenyl)-3-methyl-1H-pyrazolo[3,4-d]pyrimidin-4(5H)-one]: the inhibition (as a rule, the change of the read-out against control, counted positive when it falls) at 10 µM came out at 5.29%.

For `Cc1nn(-c2ccc(F)cc2)c2ncnc(NN)c12` [Compound 9, 1–(4-Fluorophenyl)-4-hydrazinyl-3-methyl-1H-pyrazolo[3,4-d]-pyrimidine], the inhibition at 10 µM is 23.5%.

The test system of another data set is A549/ATCC. As to the kind of experiment: NCI 60 cell line single dose screen (SRB). As to conditions: Homo sapiens; A549/ATCC (non-small cell lung cancer), single dose 10^−5 M, 48 h; read-out: Growth inhibition percentage. Format: cell-based. The essentials:
as §1
Regarding `Cc1nn(-c2ccc(F)cc2)c2nc[nH]c(=O)c12` [Compound 3, 1–(4-Fluorophenyl)-3-methyl-1H-pyrazolo[3,4-d]pyrimidin-4(5H)-one], the inhibition at 10 µM was -2.93%.

With `Cc1nn(-c2ccc(F)cc2)c2ncnc(NN)c12` [Compound 9, 1–(4-Fluorophenyl)-4-hydrazinyl-3-methyl-1H-pyrazolo[3,4-d]-pyrimidine], the inhibition at 10 µM is -5.98%.

The subject of the next data set is SNB-75. As to the kind of experiment: NCI 60 cell line single dose screen (SRB). As to conditions: Homo sapiens; SNB-75 (CNS cancer), single dose 10^−5 M, 48 h; read-out: Growth inhibition percentage. The format is cell-based. The essentials: as §1
On to `Cc1nn(-c2ccc(F)cc2)c2nc[nH]c(=O)c12` [Compound 3, 1–(4-Fluorophenyl)-3-methyl-1H-pyrazolo[3,4-d]pyrimidin-4(5H)-one], for which the inhibition at 10 µM is 0.29%.

For the compound `Cc1nn(-c2ccc(F)cc2)c2ncnc(NN)c12` [Compound 9, 1–(4-Fluorophenyl)-4-hydrazinyl-3-methyl-1H-pyrazolo[3,4-d]-pyrimidine], the inhibition at 10 µM was -0.56%.

For another data set, the system named is CCRF-CEM. As to the kind of experiment: NCI 60 cell line single dose screen (SRB). The format is cell-based. As to conditions: Homo sapiens; CCRF-CEM (leukemia), single dose 10^−5 M, 48 h; read-out: Growth inhibition percentage. The essentials: as §1
Take `Cc1nn(-c2ccc(F)cc2)c2nc[nH]c(=O)c12` [Compound 3, 1–(4-Fluorophenyl)-3-methyl-1H-pyrazolo[3,4-d]pyrimidin-4(5H)-one]: the inhibition at 10 µM is -1.13%.

As to `Cc1nn(-c2ccc(F)cc2)c2ncnc(NN)c12` [Compound 9, 1–(4-Fluorophenyl)-4-hydrazinyl-3-methyl-1H-pyrazolo[3,4-d]-pyrimidine], the inhibition at 10 µM stood at 30.9%.

Another data set has as its system HCT-15. The experiment in a line: NCI 60 cell line single dose screen (SRB). The format is cell-based. As to conditions: Homo sapiens; HCT-15 (colon cancer), single dose 10^−5 M, 48 h; read-out: Growth inhibition percentage. The essentials:
as §1
In the case of `Cc1nn(-c2ccc(F)cc2)c2nc[nH]c(=O)c12` [Compound 3, 1–(4-Fluorophenyl)-3-methyl-1H-pyrazolo[3,4-d]pyrimidin-4(5H)-one], the inhibition at 10 µM was -6.88%.

As for `Cc1nn(-c2ccc(F)cc2)c2ncnc(NN)c12` [Compound 9, 1–(4-Fluorophenyl)-4-hydrazinyl-3-methyl-1H-pyrazolo[3,4-d]-pyrimidine], the inhibition at 10 µM is -5.82%.

The next data set relates to SK-OV-3. As to the kind of experiment: NCI 60 cell line single dose screen (SRB). As to conditions: Homo sapiens; SK-OV-3 (ovarian cancer), single dose 10^−5 M, 48 h; read-out: Growth inhibition percentage. The format is cell-based. The essentials:
as §1
Consider `Cc1nn(-c2ccc(F)cc2)c2nc[nH]c(=O)c12` [Compound 3, 1–(4-Fluorophenyl)-3-methyl-1H-pyrazolo[3,4-d]pyrimidin-4(5H)-one], for which the inhibition at 10 µM is -2.82%.

Consider `Cc1nn(-c2ccc(F)cc2)c2ncnc(NN)c12` [Compound 9, 1–(4-Fluorophenyl)-4-hydrazinyl-3-methyl-1H-pyrazolo[3,4-d]-pyrimidine], for which the inhibition at 10 µM came to 7.98%.

A further data set deals with SN12C. The experiment in a line: NCI 60 cell line single dose screen (SRB). As to conditions: Homo sapiens; SN12C (renal cancer), single dose 10^−5 M, 48 h; read-out: Growth inhibition percentage. Format: cell-based. The essentials:
as §1
In the case of `Cc1nn(-c2ccc(F)cc2)c2nc[nH]c(=O)c12` [Compound 3, 1–(4-Fluorophenyl)-3-methyl-1H-pyrazolo[3,4-d]pyrimidin-4(5H)-one], the inhibition at 10 µM was -2.5%.

With `Cc1nn(-c2ccc(F)cc2)c2ncnc(NN)c12` [Compound 9, 1–(4-Fluorophenyl)-4-hydrazinyl-3-methyl-1H-pyrazolo[3,4-d]-pyrimidine], the inhibition at 10 µM worked out at 8.3%.

The subject of another data set is NCI-H522. The experiment in a line: NCI 60 cell line single dose screen (SRB). Format: cell-based. The settings on record: Homo sapiens; NCI-H522 (non-small cell lung cancer), single dose 10^−5 M, 48 h; read-out: Growth inhibition percentage. The essentials: as §1
Take `Cc1nn(-c2ccc(F)cc2)c2nc[nH]c(=O)c12` [Compound 3, 1–(4-Fluorophenyl)-3-methyl-1H-pyrazolo[3,4-d]pyrimidin-4(5H)-one]: the inhibition at 10 µM turned out to be 4.92%.

`Cc1nn(-c2ccc(F)cc2)c2ncnc(NN)c12` [Compound 9, 1–(4-Fluorophenyl)-4-hydrazinyl-3-methyl-1H-pyrazolo[3,4-d]-pyrimidine]: the inhibition at 10 µM turned out to be 10.3%.

The next data set concerns M14. As to the kind of experiment: NCI 60 cell line single dose screen (SRB). Format: cell-based. The settings on record: Homo sapiens; M14 (melanoma), single dose 10^−5 M, 48 h; read-out: Growth inhibition percentage. The essentials:
as §1
`Cc1nn(-c2ccc(F)cc2)c2nc[nH]c(=O)c12` [Compound 3, 1–(4-Fluorophenyl)-3-methyl-1H-pyrazolo[3,4-d]pyrimidin-4(5H)-one]: the inhibition at 10 µM is -7.65%.

Take `Cc1nn(-c2ccc(F)cc2)c2ncnc(NN)c12` [Compound 9, 1–(4-Fluorophenyl)-4-hydrazinyl-3-methyl-1H-pyrazolo[3,4-d]-pyrimidine]: the inhibition at 10 µM was -8%.

The subject of another data set is HL-60(TB). As to the kind of experiment: NCI 60 cell line single dose screen (SRB). Format: cell-based. The settings on record: Homo sapiens; HL-60(TB) (leukemia), single dose 10^−5 M, 48 h; read-out: Growth inhibition percentage. The essentials:
as §1
For `Cc1nn(-c2ccc(F)cc2)c2nc[nH]c(=O)c12` [Compound 3, 1–(4-Fluorophenyl)-3-methyl-1H-pyrazolo[3,4-d]pyrimidin-4(5H)-one], the inhibition at 10 µM came out at 6.74%.

As for `Cc1nn(-c2ccc(F)cc2)c2ncnc(NN)c12` [Compound 9, 1–(4-Fluorophenyl)-4-hydrazinyl-3-methyl-1H-pyrazolo[3,4-d]-pyrimidine], the inhibition at 10 µM came to 11.8%.

Another data set has as its system HOP-92. The experiment in a line: NCI 60 cell line single dose screen (SRB). The settings on record: Homo sapiens; HOP-92 (non-small cell lung cancer), single dose 10^−5 M, 48 h; read-out: Growth inhibition percentage. Format: cell-based. The essentials:
as §1
As to `Cc1nn(-c2ccc(F)cc2)c2nc[nH]c(=O)c12` [Compound 3, 1–(4-Fluorophenyl)-3-methyl-1H-pyrazolo[3,4-d]pyrimidin-4(5H)-one], the inhibition at 10 µM was 10.3%.

As to `Cc1nn(-c2ccc(F)cc2)c2ncnc(NN)c12` [Compound 9, 1–(4-Fluorophenyl)-4-hydrazinyl-3-methyl-1H-pyrazolo[3,4-d]-pyrimidine], the inhibition at 10 µM turned out to be 13.4%.

The test system of a further data set is BT-549. As to the kind of experiment: NCI 60 cell line single dose screen (SRB). Format: cell-based. As to conditions: Homo sapiens; BT-549 (breast cancer), single dose 10^−5 M, 48 h; read-out: Growth inhibition percentage. The essentials: as §1
For `Cc1nn(-c2ccc(F)cc2)c2nc[nH]c(=O)c12` [Compound 3, 1–(4-Fluorophenyl)-3-methyl-1H-pyrazolo[3,4-d]pyrimidin-4(5H)-one], the inhibition at 10 µM is -3.59%.

With `Cc1nn(-c2ccc(F)cc2)c2ncnc(NN)c12` [Compound 9, 1–(4-Fluorophenyl)-4-hydrazinyl-3-methyl-1H-pyrazolo[3,4-d]-pyrimidine], the inhibition at 10 µM is -10.8%.

Another data set concerns SNB-19. As to the kind of experiment: NCI 60 cell line single dose screen (SRB). Format: cell-based. As to conditions: Homo sapiens; SNB-19 (CNS cancer), single dose 10^−5 M, 48 h; read-out: Growth inhibition percentage. The essentials:
as §1
As to `Cc1nn(-c2ccc(F)cc2)c2nc[nH]c(=O)c12` [Compound 3, 1–(4-Fluorophenyl)-3-methyl-1H-pyrazolo[3,4-d]pyrimidin-4(5H)-one], the inhibition at 10 µM was -3.69%.

In the case of `Cc1nn(-c2ccc(F)cc2)c2ncnc(NN)c12` [Compound 9, 1–(4-Fluorophenyl)-4-hydrazinyl-3-methyl-1H-pyrazolo[3,4-d]-pyrimidine], the inhibition at 10 µM amounted to 11.3%.

The next data set has as its system TK-10. As to the kind of experiment: NCI 60 cell line single dose screen (SRB). Format: cell-based. As to conditions: Homo sapiens; TK-10 (renal cancer), single dose 10^−5 M, 48 h; read-out: Growth inhibition percentage. The essentials:
as §1
Regarding `Cc1nn(-c2ccc(F)cc2)c2nc[nH]c(=O)c12` [Compound 3, 1–(4-Fluorophenyl)-3-methyl-1H-pyrazolo[3,4-d]pyrimidin-4(5H)-one], the inhibition at 10 µM was -3.17%.

In the case of `Cc1nn(-c2ccc(F)cc2)c2ncnc(NN)c12` [Compound 9, 1–(4-Fluorophenyl)-4-hydrazinyl-3-methyl-1H-pyrazolo[3,4-d]-pyrimidine], the inhibition at 10 µM is -51.2%.

The subject of another data set is UO-31. As to the kind of experiment: NCI 60 cell line single dose screen (SRB). The format is cell-based. The settings on record: Homo sapiens; UO-31 (renal cancer), single dose 10^−5 M, 48 h; read-out: Growth inhibition percentage. The essentials: as §1
On to `Cc1nn(-c2ccc(F)cc2)c2nc[nH]c(=O)c12` [Compound 3, 1–(4-Fluorophenyl)-3-methyl-1H-pyrazolo[3,4-d]pyrimidin-4(5H)-one], for which the inhibition at 10 µM is 11.7%.

For `Cc1nn(-c2ccc(F)cc2)c2ncnc(NN)c12` [Compound 9, 1–(4-Fluorophenyl)-4-hydrazinyl-3-methyl-1H-pyrazolo[3,4-d]-pyrimidine], the inhibition at 10 µM came to 28.7%.

A further data set has as its system SF-593. The experiment in a line: NCI 60 cell line single dose screen (SRB). The format is cell-based. As to conditions: Homo sapiens, SF-593 (CNS cancer), single dose 10^−5 M, 48 h, read-out: Growth inhibition percentage. The essentials:
as §1
For the compound `Cc1nn(-c2ccc(F)cc2)c2nc[nH]c(=O)c12` [Compound 3, 1–(4-Fluorophenyl)-3-methyl-1H-pyrazolo[3,4-d]pyrimidin-4(5H)-one], the inhibition at 10 µM was -0.99%.

For `Cc1nn(-c2ccc(F)cc2)c2ncnc(NN)c12` [Compound 9, 1–(4-Fluorophenyl)-4-hydrazinyl-3-methyl-1H-pyrazolo[3,4-d]-pyrimidine], the inhibition at 10 µM was -0.7%.

Tested on in the next data set: not given
Test: not given
Conditions: not given
Regarding `Cc1nn(-c2ccc(F)cc2)c2nc[nH]c(=O)c12` [Compound 3, 1–(4-Fluorophenyl)-3-methyl-1H-pyrazolo[3,4-d]pyrimidin-4(5H)-one], the melting point (usually the temperature of the solid-liquid transition) was more than 300 °C.

`Cc1nn(-c2ccc(F)cc2)c2ncnc(NN)c12` [Compound 9, 1–(4-Fluorophenyl)-4-hydrazinyl-3-methyl-1H-pyrazolo[3,4-d]-pyrimidine] showed a melting point of 208 to 210 °C.
